In the oligonucleotide strings, read from the 5' end, every base follows the letter of its sugar. An asterisk marks phosphorothioate; unmarked linkages are phosphodiester. Other units and linkages are bracketed, terminal groups are in braces. A string of capitals states the bases alone. d = 2'-deoxy (DNA); m = 2'-O-methyl
Biological target: T1, TLR8 (Homo sapiens, UniProt Q9NR97)
T1 sequence (Q9NR97 27-1041): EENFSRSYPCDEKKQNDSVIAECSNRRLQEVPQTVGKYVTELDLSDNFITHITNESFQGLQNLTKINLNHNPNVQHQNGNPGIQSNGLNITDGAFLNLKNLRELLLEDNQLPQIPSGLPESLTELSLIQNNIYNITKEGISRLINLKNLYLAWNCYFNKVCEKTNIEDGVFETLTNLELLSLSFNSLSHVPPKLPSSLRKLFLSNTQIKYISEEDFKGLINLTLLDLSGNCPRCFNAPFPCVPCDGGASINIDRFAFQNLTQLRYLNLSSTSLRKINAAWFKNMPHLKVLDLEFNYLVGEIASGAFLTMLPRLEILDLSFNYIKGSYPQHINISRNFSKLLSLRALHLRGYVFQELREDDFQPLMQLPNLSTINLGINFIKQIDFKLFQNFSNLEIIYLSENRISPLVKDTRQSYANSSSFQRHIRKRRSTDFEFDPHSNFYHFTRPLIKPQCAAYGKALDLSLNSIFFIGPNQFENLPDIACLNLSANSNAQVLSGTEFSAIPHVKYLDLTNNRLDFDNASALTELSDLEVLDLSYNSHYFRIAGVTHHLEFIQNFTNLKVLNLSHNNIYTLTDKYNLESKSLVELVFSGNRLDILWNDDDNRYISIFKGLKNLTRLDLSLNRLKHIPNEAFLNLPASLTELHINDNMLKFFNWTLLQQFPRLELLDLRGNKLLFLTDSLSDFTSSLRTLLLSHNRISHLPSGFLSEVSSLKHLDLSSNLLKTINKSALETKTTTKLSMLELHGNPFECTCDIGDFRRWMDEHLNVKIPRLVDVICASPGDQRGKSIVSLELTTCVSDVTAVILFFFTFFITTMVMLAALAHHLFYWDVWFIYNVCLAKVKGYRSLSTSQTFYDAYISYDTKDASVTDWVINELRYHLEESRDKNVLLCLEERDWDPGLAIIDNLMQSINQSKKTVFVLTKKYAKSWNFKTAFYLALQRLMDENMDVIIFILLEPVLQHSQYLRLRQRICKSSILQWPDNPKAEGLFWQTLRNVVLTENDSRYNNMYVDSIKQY
Assay: HEK-TLR8 NF-κB-luciferase reporter, R848 or Motolimod stimulation (potentiation or inhibition)
Type: cell-based
Parameters: expressed in transfected cells; host or cells: 293XLhTLR8 (HEK293)
Conditions: for TLR8 100 nM (averaged NF-κB-Luciferase level relative to R848 condition, fold increase): ASO 100 nM; for TLR8 100 nM (averaged NF-κB-Luciferase level relative to R848 condition, fold increase) / TLR8 500 nM (averaged NF-κB-Luciferase level relative to R848 condition, fold increase): relative to R848 only; for TLR8 500 nM (averaged NF-κB-Luciferase level relative to R848 condition, fold increase): ASO 500 nM; for TLR8-500 nM: averaged NF-κB-Luciferase relative to R848: HEK-TLR8, 500 nM ASO, fold increase relative to R848 without ASO (Alharbi et al., 2020)

Row | Substance | TLR8 100 nM (averaged NF-κB-Luciferase level relative to R848 condition, fold increase) | TLR8 500 nM (averaged NF-κB-Luciferase level relative to R848 condition, fold increase) | TLR8-500 nM: averaged NF-κB-Luciferase relative to R848 [fold]
1 | TGACTGTCTTGAGGGT (antisense; LNA-modified, pattern not given here) [MB21D1-1483 LNA KL] | 0.973 | 3.210 | 
2 | GGTCATTACAATAGCT (antisense; LNA-modified, pattern not given here) [HPRT LNA-475 KL] | 0.500 | 1.381 | 
3 | mG*mU*mG*mU*mC*C*T*T*C*A*T*G*C*T*T*mU*mG*mG*mA*mU (GUGUCCTTCATGCTTUGGAU; antisense; sugars from the 5' end m5 d10 m5, all phosphorothioate, methylation of C not given here) [[CDKN2B-AS1]1415] |  |  | 1.60
4 | GTCCTTGCACGTGGCT (antisense; LNA-modified, pattern not given here) [EGFR-1015 LNA V1] | 0.570 | 0.936 | 
5 | TCTTGGCTTCGTGGAG (antisense; LNA-modified, pattern not given here) [MB21D1-521 LNA V1] | 0.541 | 0.197 | 
6 | mC*mU*mU*mG*mU*G*A*A*A*A*G*A*T*T*A*mU*mC*mU*mU*mC (mC*mU*mU*mG*mU*dG*dA*dA*dA*dA*dG*dA*dT*dT*dA*mU*mC*mU*mU*mC) [[CDKN2B-AS1]2139] |  |  | 6.02
7 | mC*mA*mG*mU*mC*T*C*C*A*T*G*T*C*C*C*mA*mG*mG*mC*mC (mC*mA*mG*mU*mC*dT*dC*dC*dA*dT*dG*dT*dC*dC*dC*mA*mG*mG*mC*mC; antisense) [[CDKN2B-AS1]2233] |  |  | 3.81
8 | mG*mU*mG*mU*mU*T*T*T*A*A*T*T*T*T*G*mU*mA*mG*mA*mG (mG*mU*mG*mU*mU*dT*dT*dT*dA*dA*dT*dT*dT*dT*dG*mU*mA*mG*mA*mG) [[CDKN2B-AS1]611] |  |  | 1.88
9 | CTTGAAGCATCGTATC (antisense; LNA-modified, pattern not given here) [CTNN2B-3648 LNA KL] | 0.960 | 3.889 | 
10 | AACACTTCGTGGGGTC (antisense; LNA-modified, pattern not given here) [HPRT LNA-666 V1] | 0.496 | 0.882 | 
11 | GCACTTCAGTCTGAGC (antisense; LNA-modified, pattern not given here) [MB21D1-719 LNA KL] | 0.495 | 0.864 | 
12 | AGGTCTTGGCTTCGTG (antisense; LNA-modified, pattern not given here) [MB21D1-524 LNA V1] | 0.596 | 1.953 | 
13 | TCCTTGCACGTGGCTT (antisense; LNA-modified, pattern not given here) [EGFR-1014 LNA V1] | 0.491 | 0.601 | 
14 | TCCACAATCAAGACAT (antisense; LNA-modified, pattern not given here) [HPRT LNA-551 KL] | 0.474 | 0.893 | 
15 | GGCACTTTGCCTCCTT (antisense; LNA-modified, pattern not given here) [EGFR-2859 LNA V1] | 0.652 | 0.862 | 
16 | CGCTTTTCTGTCTGGT (antisense; LNA-modified, pattern not given here) [CTNN2B-311 LNA KL] | 0.920 | 2.896 | 
17 | AGGCCCTTCGCACTTC (antisense; LNA-modified, pattern not given here) [EGFR-1225 LNA V1] | 0.507 | 0.967 | 
18 | AGCTTCGAGGCCCCAG (antisense; LNA-modified, pattern not given here) [MB21D1-616 LNA V1] | 0.331 | 0.865 | 
19 | GATGGCCTCCCATCTC (antisense; LNA-modified, pattern not given here) [HPRT LNA-331 V1] | 0.278 | 0.186 | 
20 | CCAACACTTCGTGGGG (antisense; LNA-modified, pattern not given here) [HPRT LNA-668 V1] | 0.535 | 0.835 | 
